Data: patent US8592172B2, “Bioluminescent assays using cyanobenzothiazole compounds” (Promega Corporation, priority 2010, dated 2013)

What was measured:
CYP1A2 [1] = assay: Multiplex human hepatocyte assay, CYP1A2 detected with compound 3019; type: cell-based; details: human hepatocytes, 100 μM omeprazole 48 hours
Method: For detection of CYP3A4, the luciferin acetal derivative, Luciferin-IPA (Luc-IPA), was used with bioluminescence detected using LDR without D-cysteine.
Human cryopreserved hepatocytes (Celsis In Vitro Technologies) were thawed and seeded in hepatocyte culture medium in wells of a collagen-coated, 96-well culture plate at ˜50,000 cells per well and kept at 37° C. in standard cell culture incubator with 5% CO2. […] The plate was then removed from the incubator. Fifty μl from each intact cell supernatant was transferred to two-set wells of a white, 96-well luminometer plate (Costar). To one set of wells, 50 μl of LDR with 4 mM D-cysteine was added, while 50 μl of LDR without D-cysteine was added to the other set.

CYP1A2 [2] = assay: Non-lytic cell-based assay with human hepatocytes, compound 3019
Method: Human cryopreserved hepatocytes (Celsis lot RTM) were thawed and seeded in hepatocyte culture medium in wells of a collagen-coated, 96-well culture plate at ˜70,000 cells per well and kept at 37° C. in standard cell culture incubator with 5% CO2. The cells were then treated for 48 hours with 100 μM omeprazole or vehicle control (0.1% dimethylsulfoxide) dissolved in hepatocytes culture medium (n═3 for each treatment, mean values and standard deviations are shown). […] 50 μl of the KH incubation buffer was then removed from each well and transferred to a well of a white, 96-well luminometer plate (Costar) where it was also combined with 50 μl of P450-Glo LDR containing 6.6 mM D-cysteine.

[3] = molecular target: Human recombinant CYP450 1A2 (Homo sapiens, UniProt P05177)
Human recombinant CYP450 1A2, sequence (P05177 whole entry): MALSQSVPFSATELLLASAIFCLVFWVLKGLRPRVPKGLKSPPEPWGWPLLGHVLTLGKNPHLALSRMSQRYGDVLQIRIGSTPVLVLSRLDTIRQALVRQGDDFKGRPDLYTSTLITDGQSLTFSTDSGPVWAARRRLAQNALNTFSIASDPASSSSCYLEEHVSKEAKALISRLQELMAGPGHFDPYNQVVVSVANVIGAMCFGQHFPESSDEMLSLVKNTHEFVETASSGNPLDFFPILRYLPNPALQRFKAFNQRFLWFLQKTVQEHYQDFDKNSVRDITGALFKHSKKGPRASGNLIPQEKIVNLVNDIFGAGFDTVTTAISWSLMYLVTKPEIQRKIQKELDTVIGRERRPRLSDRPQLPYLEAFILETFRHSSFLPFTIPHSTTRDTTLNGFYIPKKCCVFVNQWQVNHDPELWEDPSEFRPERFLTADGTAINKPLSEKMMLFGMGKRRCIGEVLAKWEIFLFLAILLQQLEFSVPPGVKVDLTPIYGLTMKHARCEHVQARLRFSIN
Method: (§1) Equal volumes of P450-Glo LDR with 6.6 mM D-Cysteine was added into the CYP450 reactions.

[4] = system: CYP450 1A2 activity in human liver microsomes; assay: Human liver microsome assay with compound 3019
Method: as §1

Row | induction of CYP1A2 activity (CYP1A2 [1]; compound 3019 alone (FIG. 34A)) | induction of CYP1A2 activity (CYP1A2 [1]; compound 3019 in the presence of Luciferin-IPA (FIG. 34C)) | change of signal versus vehicle (CYP1A2 induction) (CYP1A2 [2]; 100 μM omeprazole 48 hours, 3 μM compound 3019) | Structure (SMILES) | entry of substrate into cells (CYP1A2 [2]; non-lytic, 3 μM compound 3019, 1 hour) | substrate status for CYP450 1A2 [3] | activity with compound 3019 in human liver microsomes [4]
1 | induction of CYP1A2 activity | induction of CYP1A2 activity | significantly increased | COc1ccc2[nH]c([S+]([O-])Cc3ncc(C)c(OC)c3C)nc2c1 (stereo not drawn) [omeprazole] | – | – | –
2 | – | – | – | CC(C)OC(OC(C)C)C1CSC(c2nc3ccc(O)cc3s2)=N1 (stereo not drawn) [Compound 3019] | entered the cell | is indeed a CYP450 1A2 substrate | substantial activity
